pKd: −log10 of the molar value.
Key:
[1] = tested on: primary brown adipocytes cultured from A-Them1Tg mice; assay: Oxygen consumption rates (OCR) in primary brown adipocytes; format: cell-based, mouse; details: compounds at their in vitro IC50 concentrations, 30 min, NE 1 μM; vs wild type (DMSO)
Procedure: Primary brown adipocytes from 4- to 6-w old wild type and A-Them1Tg mice were isolated, cultured and differentiated as described (Okada et al., 2016). In brief, BAT tissues harvested from 5- to 7-w old mice were pooled, minced and digested with collagenase B (Sigma-Aldrich; St. Louis, MO), and dispersed in growth medium [DMEM/F12 containing 4.5 g/L glucose, 0.1 mM pyruvate, 10 mM HEPES (Thermo Fisher; Waltham, MA) supplemented with 1% penicillin/streptomycin, 1% GlutaMAX (Thermo Fisher; Waltham, MA) and 20% fetal bovine serum]. […] Upon achieving confluence, pre-adipocytes were induced to differentiate for 8 d by culturing for the first 48 h in differentiation medium [DMEM/F12 containing 4.5 g/L glucose, 0.1 mM pyruvate, 10 mM HEPES (Thermo Fisher; Waltham, MA) supplemented with 1% penicillin/streptomycin, 1% GlutaMAX (Thermo Fisher; Waltham, MA), 10% fetal bovine serum, bovine insulin (5 μg/mL; Thermo Fisher; Waltham, MA) and rosiglitazone (1 μM; Sigma Aldrich; St. Louis, MO)] supplemented with dexamethasone (5 μM; Sigma Aldrich; St. Louis, MO) and 3-isobutyl-1-methylxanthine (0.5 mM; Sigma Aldrich; St. Louis, MO) and differentiation medium thereafter. On differentiation d 6 to 8, the adipocyte differentiation media was supplemented with L-(−)-norepinephrine (+) bitartrate (Calbiochem; EMD Millipore; Billerica, MA). Primary brown adipocytes were maintained in a cell culture incubator at 37° C. with 5% CO2.
In primary brown adipocytes on d 8 of differentiation, values of OCR were measured in the presence or absence of compounds using a Seahorse XF96 extracellular flux analyzer (Agilent Technologies; Santa Clara, CA). […] OCR values were measured before and after the exposure of cells to NE (1 μM) and normalized with total live cell count calculated through staining with NucRed Live probe (Thermo Fisher; Waltham, MA) measured at 715 nm emission and 623 nm excitation using a SpectraMax i3X plate reader (Molecular Devices; San Jose; CA).

in vitro = details: C57BL/6, mouse, primary brown adipocytes
full-length human Acot12 = full-length human Acot12 (Homo sapiens, UniProt Q8WYK0); assay: biochemical
Chain of full-length human Acot12 (Q8WYK0 whole entry): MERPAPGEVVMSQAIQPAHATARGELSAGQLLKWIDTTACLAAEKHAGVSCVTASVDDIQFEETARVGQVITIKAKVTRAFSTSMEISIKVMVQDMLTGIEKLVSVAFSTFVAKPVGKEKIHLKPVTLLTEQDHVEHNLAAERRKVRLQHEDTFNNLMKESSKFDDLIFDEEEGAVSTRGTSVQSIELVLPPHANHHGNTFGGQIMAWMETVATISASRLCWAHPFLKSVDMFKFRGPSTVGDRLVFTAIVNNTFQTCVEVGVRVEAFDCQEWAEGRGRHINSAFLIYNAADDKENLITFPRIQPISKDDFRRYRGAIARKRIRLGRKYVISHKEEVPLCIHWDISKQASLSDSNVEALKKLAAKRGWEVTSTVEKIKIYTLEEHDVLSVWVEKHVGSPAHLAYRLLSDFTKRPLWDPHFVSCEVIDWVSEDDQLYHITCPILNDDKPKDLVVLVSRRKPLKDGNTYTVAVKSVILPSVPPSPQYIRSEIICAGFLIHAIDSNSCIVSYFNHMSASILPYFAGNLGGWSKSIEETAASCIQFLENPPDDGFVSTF

recombinant human Them1 = target: T1, recombinant human Them1 (Homo sapiens, UniProt Q8WXI4); assay: Acot activity assay (fluorometric, C14-CoA), inhibition of Them1; format: biochemical; details: in words
T1 construct: Reaction labeling recombinant full-length Them1; made in house; host or cells: E. coli Shuffle T7
T1 sequence (Q8WXI4 14-594 isoform Q8WXI4-2 limits assumed): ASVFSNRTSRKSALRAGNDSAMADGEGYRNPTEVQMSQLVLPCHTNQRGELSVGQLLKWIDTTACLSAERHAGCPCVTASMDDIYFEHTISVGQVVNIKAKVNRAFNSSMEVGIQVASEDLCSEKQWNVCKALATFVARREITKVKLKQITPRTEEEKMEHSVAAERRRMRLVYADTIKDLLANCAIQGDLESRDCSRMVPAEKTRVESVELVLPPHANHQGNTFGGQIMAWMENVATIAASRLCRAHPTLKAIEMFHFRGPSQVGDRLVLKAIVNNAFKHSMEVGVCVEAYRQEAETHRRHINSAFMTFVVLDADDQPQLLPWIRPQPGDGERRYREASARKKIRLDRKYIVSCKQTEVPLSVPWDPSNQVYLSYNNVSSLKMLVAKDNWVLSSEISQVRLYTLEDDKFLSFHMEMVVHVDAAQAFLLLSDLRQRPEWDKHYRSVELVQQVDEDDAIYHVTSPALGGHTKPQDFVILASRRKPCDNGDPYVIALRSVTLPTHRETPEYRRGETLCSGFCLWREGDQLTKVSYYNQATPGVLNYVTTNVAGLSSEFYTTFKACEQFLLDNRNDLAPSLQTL
Procedure: Human Them1 consists of two splice variants (Them1a and Them1b) that are distinguished by an additional 13 amino acids at the C-terminus of the ‘a’ isoform (Adams et al., 2001). […] Sufficient quantities of recombinant Them1 required for the HTS were obtained as a service of the University of Georgia Bioexpression and Fermentation Core Facility (Athens, GA). […] Purity of recombinant Them1 was analyzed by SDS-PAGE followed by Coomassie Brilliant Blue staining. The concentration of recombinant Them1 was determined according to the molar extinction coefficient at 280 nm, which was calculated based on the amino acid sequence (www.expasy.org). Single use aliquots of recombinant Them1 were stored at −80° C. until use to prevent protein precipitation during purification. The pH values of all buffers were adjusted to remain at least two units removed from the pI of recombinant Them1.

full-length Them1 = target: T2, full-length Them1 (Homo sapiens, UniProt Q8WXI4); assay: Microscale thermophoresis binding, full-length Them1; details: in words
T2 sequence (Q8WXI4 14-594 isoform Q8WXI4-2 limits assumed): T1 sequence (Q8WXI4 14-594 isoform Q8WXI4-2 limits assumed)

Them1-ΔSTART = target: T3, Them1-ΔSTART (Homo sapiens, UniProt Q8WXI4); assay: Microscale thermophoresis binding, Them1-ΔSTART; details: for pKd: read-out: Kd, Thioesterase domains (Them1-ΔSTART ), MST, 100 nM labeled protein, 22° C.; for binding to Them1-ΔSTART: in words
T3 sequence (Q8WXI4 43-329 isoform Q8WXI4-2 limits assumed): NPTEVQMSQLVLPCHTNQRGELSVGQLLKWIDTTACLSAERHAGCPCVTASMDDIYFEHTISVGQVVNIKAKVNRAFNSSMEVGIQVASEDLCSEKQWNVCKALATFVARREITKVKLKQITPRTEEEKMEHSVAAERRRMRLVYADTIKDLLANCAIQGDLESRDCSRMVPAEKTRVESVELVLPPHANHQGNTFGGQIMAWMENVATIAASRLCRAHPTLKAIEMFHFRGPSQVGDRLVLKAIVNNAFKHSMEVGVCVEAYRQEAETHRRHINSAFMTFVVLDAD

Them1 START domain = target: T4, Them1 START domain (Homo sapiens, UniProt Q8WXI4); assay: Microscale thermophoresis binding, START domain; details: in words
T4 sequence (Q8WXI4 339-594 isoform Q8WXI4-2): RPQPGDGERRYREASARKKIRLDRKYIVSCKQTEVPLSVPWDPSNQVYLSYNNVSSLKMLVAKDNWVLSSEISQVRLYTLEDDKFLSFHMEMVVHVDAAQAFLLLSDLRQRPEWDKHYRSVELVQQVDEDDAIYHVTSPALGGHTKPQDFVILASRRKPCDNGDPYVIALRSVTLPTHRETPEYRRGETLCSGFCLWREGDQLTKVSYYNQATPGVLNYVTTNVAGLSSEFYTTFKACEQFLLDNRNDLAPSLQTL

Row | SMILES | pKd (full-length human Acot12) | IC50 value compared to the parent U1 compound (recombinant human Them1) | Kd / binding affinity to full-length Them1 compared to the parent U1 compound (full-length Them1) | pKd (Them1-ΔSTART) | binding affinity to the START domain compared to the parent U1 compound (Them1 START domain) | binding to Them1-ΔSTART (Them1-ΔSTART) | OCR in A-Them1Tg brown adipocytes, reversal of Them1 suppression [1] | CC50 at 48 h (in vitro) [µM]
1 | Cc1[nH]c2ccccc2c1C(c1cccs1)N1CCN(Cc2ccccc2)CC1 (centres unmarked) [3-((4-benzylpiperazin-1-yl)(thiophen-2-yl)methyl)-2-methyl-1H-indole] | < 3.90 |  |  |  |  |  | reversed the suppressive effects of Them1 on values of OCR | > 125
2 | Cc1[nH]c2ccccc2c1C(c1cccs1)N1CCCC1 (centres unmarked) [Compound U2] |  |  |  |  |  |  |  | > 125
3 | Cc1[nH]c2ccccc2c1C(c1cccs1)N1CCN(C)CC1 (centres unmarked) [Compound U3] |  |  |  |  |  |  |  | > 125
4 | Cc1[nH]c2ccccc2c1C(c1cccs1)N1CCN(c2ccccc2)CC1 (centres unmarked) [Compound U4] |  | comparable | comparable |  |  |  |  | > 125
5 | Cc1[nH]c2ccccc2c1C(c1cccs1)N1CCOCC1 (centres unmarked) [Compound U5] |  |  |  |  |  |  |  | > 125
6 | Cc1[nH]c2ccccc2c1C(c1cccs1)N1CCCCC1 (centres unmarked) [Compound U6] | < 3.90 |  |  | < 3.90 |  |  | reversed the suppressive effects of Them1 on values of OCR | > 125
7 | CCOC(=O)C1CCN(C(c2cccs2)c2c(C)[nH]c3ccccc23)CC1 (centres unmarked) [Compound U7, ethyl 1-((2-methyl-1H-indol-3-yl)(thiophen-2-yl)methyl)piperidine-4-carboxylate] | < 3.90 |  | comparable | < 3.90 | comparable | did not bind |  | > 125

Now from value to compound, other results behind:

Row | pKd (full-length human Acot12) | IC50 value compared to the parent U1 compound (recombinant human Them1) | Kd / binding affinity to full-length Them1 compared to the parent U1 compound (full-length Them1) | pKd (Them1-ΔSTART) | binding affinity to the START domain compared to the parent U1 compound (Them1 START domain) | binding to Them1-ΔSTART (Them1-ΔSTART) | SMILES | OCR in A-Them1Tg brown adipocytes, reversal of Them1 suppression [1] | CC50 at 48 h (in vitro) [µM]
8 | < 3.90 |  |  | < 3.90 |  |  | Cc1[nH]c2ccccc2c1C(c1cccs1)N1CCNCC1 (centres unmarked) [Compound U9, 2-methyl-3-(piperazin-1-yl(thiophen-2-yl)methyl)-1H-indole] | reversed the suppressive effects of Them1 on values of OCR | > 125
9 | < 3.90 |  |  | < 3.90 |  |  | CC(=O)N1CCN(C(c2cccs2)c2c(C)[nH]c3ccccc23)CC1 (centres unmarked) [Compound U10, 1-(4-((2-methyl-1H-indol-3-yl)(thiophen-2-yl)methyl)piperazin-1-yl)ethan-1-one] |  | > 125
10 | < 3.90 |  | comparable | < 3.90 | comparable | did not bind | Cc1[nH]c2ccccc2c1C(c1cccs1)N1CCN(C(=O)c2ccccc2)CC1 (centres unmarked) [Compound U13, (4-((2-methyl-1H-indol-3-yl)(thiophen-2-yl)methyl)piperazin-1-yl)(phenyl)methanone] |  | > 125
11 | < 3.90 |  | comparable | < 3.90 | comparable | did not bind | CCOC(=O)N1CCN(C(c2ccc(C)s2)c2c(C)[nH]c3ccccc23)CC1 (centres unmarked) [Compound U16, ethyl 4-((2-methyl-1H-indol-3-yl)(5-methylthiophen-2-yl)methyl)piperazine-1-carboxylate] |  | > 125
12 | < 3.90 |  |  |  |  |  | Cc1[nH]c2ccccc2c1C(c1cccs1)N1CCN(C(=O)OCc2ccccc2)CC1 (centres unmarked) [benzyl 4-((2-methyl-1H-indol-3-yl)(thiophen-2-yl)methyl)piperazine-1-carboxylate] | remained suppressed | 
13 | < 3.90 |  |  |  |  |  | CCOC(=O)N1CCN(C(c2ccccc2)c2c(C)[nH]c3ccccc23)CC1 (centres unmarked) [ethyl 4-((2-methyl-1H-indol-3-yl)(phenyl)methyl)piperazine-1-carboxylate] |  | 

— patent publication US20230286955A1, “INHIBITORS OF THEM1” (Cornell University, priority 2022, published 2023)
